Results on two compounds are retold here after publication doi:10.1101/2022.12.19.520966v1 (biorxiv, 2022).

One may read the Emax as the greatest response seen or fitted, relative to the assay's reference. A word on the pEC50: it is −log10 of the EC50, conventionally taken in molar units. Low values mean a large EC50, high ones a small EC50.

Common to all, as to assay: HTRF IP1 accumulation
Common to all, as to format: cell-based

Experiment [1] addresses T1, T1R2/T1R3 (human sweet taste receptor) (Homo sapiens, UniProt Q7RTX0+Q8TE23).
T1 sequence (Q8TE23 20-839): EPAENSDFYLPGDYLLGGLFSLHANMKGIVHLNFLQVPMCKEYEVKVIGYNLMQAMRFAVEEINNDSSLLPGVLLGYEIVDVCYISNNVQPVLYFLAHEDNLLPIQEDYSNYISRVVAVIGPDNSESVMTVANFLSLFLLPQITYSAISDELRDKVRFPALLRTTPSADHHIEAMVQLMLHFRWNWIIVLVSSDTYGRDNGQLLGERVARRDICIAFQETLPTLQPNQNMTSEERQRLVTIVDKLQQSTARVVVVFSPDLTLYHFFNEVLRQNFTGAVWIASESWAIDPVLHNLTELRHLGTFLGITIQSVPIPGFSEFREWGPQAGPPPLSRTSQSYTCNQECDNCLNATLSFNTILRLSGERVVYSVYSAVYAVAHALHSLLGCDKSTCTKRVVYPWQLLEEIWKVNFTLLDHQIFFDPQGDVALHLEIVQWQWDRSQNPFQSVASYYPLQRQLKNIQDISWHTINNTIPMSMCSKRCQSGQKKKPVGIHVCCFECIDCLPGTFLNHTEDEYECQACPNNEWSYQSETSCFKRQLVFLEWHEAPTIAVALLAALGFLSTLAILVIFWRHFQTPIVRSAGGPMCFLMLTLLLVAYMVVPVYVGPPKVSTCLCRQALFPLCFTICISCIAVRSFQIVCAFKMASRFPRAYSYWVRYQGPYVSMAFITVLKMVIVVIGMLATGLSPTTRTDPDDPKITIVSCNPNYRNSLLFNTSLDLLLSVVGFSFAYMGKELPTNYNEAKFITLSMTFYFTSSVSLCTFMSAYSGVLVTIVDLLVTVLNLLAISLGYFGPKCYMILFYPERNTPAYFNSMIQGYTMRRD
T1 sequence (Q7RTX0 21-852): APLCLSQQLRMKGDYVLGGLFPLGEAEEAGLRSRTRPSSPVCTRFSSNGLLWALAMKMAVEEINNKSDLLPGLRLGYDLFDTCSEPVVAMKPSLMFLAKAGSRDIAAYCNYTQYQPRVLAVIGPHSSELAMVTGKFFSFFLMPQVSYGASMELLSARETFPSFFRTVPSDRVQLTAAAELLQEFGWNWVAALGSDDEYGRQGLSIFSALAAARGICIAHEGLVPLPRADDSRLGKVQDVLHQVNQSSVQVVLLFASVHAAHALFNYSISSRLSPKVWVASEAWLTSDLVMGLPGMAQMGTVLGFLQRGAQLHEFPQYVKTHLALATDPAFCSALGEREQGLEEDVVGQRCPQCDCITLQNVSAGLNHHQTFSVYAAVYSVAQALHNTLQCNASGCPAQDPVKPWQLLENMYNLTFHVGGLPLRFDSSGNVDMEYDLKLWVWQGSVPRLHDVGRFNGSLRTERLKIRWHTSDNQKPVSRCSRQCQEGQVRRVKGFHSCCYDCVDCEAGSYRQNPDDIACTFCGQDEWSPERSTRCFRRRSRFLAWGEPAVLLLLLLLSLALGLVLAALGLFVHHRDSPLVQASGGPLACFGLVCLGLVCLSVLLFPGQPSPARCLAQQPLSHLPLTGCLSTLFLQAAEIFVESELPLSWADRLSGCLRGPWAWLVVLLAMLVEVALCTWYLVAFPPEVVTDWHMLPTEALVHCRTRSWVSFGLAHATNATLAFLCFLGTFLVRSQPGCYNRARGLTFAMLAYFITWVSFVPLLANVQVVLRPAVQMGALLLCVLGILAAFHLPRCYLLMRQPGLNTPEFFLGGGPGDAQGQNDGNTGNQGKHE
Particulars: agonist; Galpha16gus44 co-transfected; 0.05 M LiCl, 5 min exposure; unreliable.

Experiment [2] deals with T1, T1R2/T1R3 (human sweet taste receptor). Particulars: agonist; Galpha16gus44 co-transfected; 0.05 M LiCl, 5 min exposure.
Experiment [3] addresses T2, T1R2/T1R3 (human sweet taste receptor) (Homo sapiens, UniProt Q7RTX0+Q8TE23, Q8TE23:R317G/Q8TE23:I486V).
T2 sequence (Q8TE23 20-839 R317G/I486V): T1 sequence (Q8TE23 20-839) with R298G, I467V
T2 sequence (Q7RTX0 21-852): T1 sequence (Q7RTX0 21-852)
Particulars: agonist; Galpha16gus44 co-transfected; 0.05 M LiCl, 5 min exposure.

Substitutions are numbered along the chain they refer to. pEC50: −log10 of the molar value.

`OC[C@H]1OC(O)[C@H](O)[C@@H](O)[C@@H]1O` (stereo partly drawn) [D-glucose] registered an Emax in experiment [1] of 100%.
For the compound `OC[C@@H]1OC(O)[C@@H](O)[C@H](O)[C@H]1O` (stereo partly drawn) [L-glucose], the pEC50 in experiment [2] was 2.70; in experiment [3], approximately 1.82.
